Read-outs that look alike come from different tables or passages of the source.
Biological target: T1, Human sputum elastase (HSE) (Homo sapiens, UniProt P08246)
T1 construct: purchased Elastin Products Co., Pacific, Mo; host or cells: human sputum
T1 sequence (P08246 30-247 limits assumed): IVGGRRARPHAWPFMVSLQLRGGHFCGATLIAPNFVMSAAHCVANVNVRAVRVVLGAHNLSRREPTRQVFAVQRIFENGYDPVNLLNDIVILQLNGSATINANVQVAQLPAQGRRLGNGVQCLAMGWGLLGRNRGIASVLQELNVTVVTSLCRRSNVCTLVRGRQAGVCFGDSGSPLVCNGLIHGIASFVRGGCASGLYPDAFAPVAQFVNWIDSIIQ
Test: In vitro elastase inhibition, hydrolysis of MeO-Suc-Ala-Ala-Pro-Val-pNA (release of pNA, 405 nm)
Type: biochemical
Conditions: 5 ug/mL, 0.5 mM substrate, pH 7.5, 15 min pre-incubation
Excerpt: The method of K. Nakajima et al., Journal of Biological Chemistry, 254: 4027-4032 (1979) was adapted to a microtiter format. The in vitro assay is based upon the hydrolysis of the commercially available (Sigma Chemical Company, St. Louis, Mo.) substrate methoxy O-succinyl-L-alanyl-L-alanyl-L-prolyl-L-valine para-nitroanilide (MeO-Suc-Ala-Ala-Pro-Val-pNA) and the release of para-nitroanilide (pNA), which absorbs at 405 nm.
a. Human sputum elastase (HSE) (Elastin Products Co., Pacific, Mo.) dissolved in 1 mg/mL in 0.05M sodium chloride and frozen (50 μL aliquots) at -20° C. until used.
b. Stock solution of MeO-succinyl-L-Alanyl-L-Alanyl-Pro-Val-pNA dissolved at 15 mM in dimethylsulfoxide (DMSO) and frozen (4 mL aliquots) at -20° C. until used.
c. Assay buffer: 0.1M Tris buffer, pH 7.5 containing 0.5M sodium chloride.
Screening is performed in microtiter plates, using 0.5 mM substrate and monitored on a Microtiter Reader. Enzyme activity (+/- test compound) is determined as the rate of pNA release (linear regression analysis of slope). Inhibitory activity of the test compound is calculated relative to the uninhibited enzyme control, as follows: [formula]
A frozen aliquot of HSE is thawed and diluted with assay buffer to a stock concentration of 0.02 mg/mL (30×assay concentration). A frozen aliquot of the substrate stock solution is thawed and diluted to 0.5 mM with the assay buffer (final DMSO concentration is […]). 10 μl of the test compound stock solution (or assay buffer) and 10 μl of the HSE stock solutions are pipetted into each microtiter well, in duplicate. The plate is mixed well, and pre-incubated at room temperature for 15 minutes. A 300 μl substrate solution is then added to each well and the OD405 is followed for approximately 30 minutes.
Further, it is known to those skilled in the art that the biological activities of pharmaceutical agents may be diminished in vitro when human serum albumin (HSA) is added. This is due to the probable binding of compounds to protein. In the case of the present invention, however, the compounds of the present invention are just as active in vitro without or with 0.5% HSA and thus would be expected not to bind to plasma in an in vivo situation or in a diagnostic setting.

[1] = 0% HSA (human serum albumin), read-out: % INHIBITION (5 ug/mL), 0% HSA
[2] = 0.5% HSA (human serum albumin), read-out: % INHIBITION (5 ug/mL), 0.5% HSA

Compound	inhibition at 5 µg/mL [1] [%]	inhibition at 5 µg/mL [2] [%]
CC(C)C1N=C2CN(C3CCCCCCC3)C(=O)[C@H](C(C)C)N2C1(O)C(F)(F)F (stereo partly drawn)	39.2	28
CC(C)C1N=C2CN(C3Cc4ccccc4C3)C(=O)[C@H](C(C)C)N2C1(O)C(F)(F)F (stereo partly drawn)	86	84.5
COc1ccc(CCN2CC3=NC(C(C)C)C(O)(C(F)(F)F)N3[C@@H](C(C)C)C2=O)cc1OC (stereo partly drawn)	47.5	58.6

— patent publication US5166154A, “Imidazo[1,2-a]piperazines” (Boehringer Ingelheim Pharmaceuticals, Inc., priority 1991, dated 1992)
